Results taken from patent US4405638A, “2-Methoxyphenyl esters of N-substituted amino acids, a process for their preparation and pharmaceutical compositions containing them” (Sigma-Tau Industrie Farmaceutiche Riunite S.p.A, priority 1981, dated 1983).

How the values were obtained:
[1] = tested on: bronchial secretion; assay: Expectorating activity: amount of bronchial secretion in rabbits (method of Perry et al.); assay type: in vivo, rabbit; details: male rabbits, 20 to 40 mg
Experimental: The experimentation was carried out on male rabbits, weighting 2-3 kg, narcotized with ethyl urethane, according to the method described by Perry et al. (J. Pharm. Exp. Ther. 73, 65 (1941)). Each compound of formula (I) was administered to 5 rabbits in doses ranging from 20 to 40 mg, 1 hour after the incannulation. The control group (8 rabbits) was given only water. The amount of secretion was determined 1, 2 and 4 hours after the administration.
Effects of compounds of formula (I) on the bronchial secretion
Percentage variations (± standard error) of the
bronchial secretion, in comparison with the
basic values, in the following times after the […]

[2] = Acute toxicity, LD50 by the Weil method, intraperitoneal administration in the mouse; details: in vivo, ip, N = 4 K = 4, confidential limits given
Description: LD50 of the compounds of formula (I), evaluated by the Weil method ("Tables for convenient calculation of median effective dose (LD50 or ED50) and instructions in their use", Biometrics, 249-253, 1952), by intraperitoneal administration in the mouse.
LD50 and confidential limits, mg/kg i.p., of the
compounds of formula I. Weil method, N = 4 K = 4

[3] = tested on: bronchial tree; assay: Bronchosecretogogic activity: sodium fluoresceine method in the rat (Mawatari); assay type: in vivo; details: 500 mg/kg i.p.
Experimental: The bronchosecretogogic activity of compound (2), i.e. 2-methoxyphenyl N-[2-(2-thenoylthio)propionyl]aminoacetate, was tested according to the method of the sodium fluoresceine in the rat, as described by Mawatari (Experimental Studies on the expectorant action of several drugs, Kagoshima Daigaku Igaku Zasshi 27, 561 (1976)), in comparison with S-carboxymethyl-cysteine (CMC) and N-(2-mercaptopropionyl)glycine (MPG).
Removal of the sodium fluoresceine from the bronchial
tree (percentage increase versus the controls).

[4] = In vivo pharmacokinetics in the rat
Description: After administration of equimolecular doses of N-[2-(2-thenoylthio)propionyl]glycine and of the corresponding 2-methoxyphenyl ester (compound (2)), higher lung concentrations of N-(2-mercaptopropionyl)glycine and thiophene-2-carboxylic acid are found in the case of compound (2) administration.

[5] = tested on: esterase; assay: In vitro enzymatic hydrolysis of compound (2); assay type: in vitro ADME
Experimental: "In vitro" and "in vivo" tests were carried out.

[6] = tested on: cough; assay: Antitussive activity: cough induced by citric acid aerosol in Guinea pigs; assay type: in vivo
Experimental: This activity was tested on Guinea pigs, in which cough was induced by citric acid aerosol, in comparison with codeine. Compound (2) was administered per os and intraperiotoneally.
Antitussive activity. Cough induced in Guinea pigs

[7] = equimolecular doses, versus N-[2-(2-thenoylthio)propionyl]glycine

Compound	Percentage variations (± standard error) of the bronchial secretion, in comparison with the basic values ([1]; 1h after the administration)	Percentage variations (± standard error) of the bronchial secretion, in comparison with the basic values ([1]; 2h after the administration)	Percentage variations (± standard error) of the bronchial secretion, in comparison with the basic values ([1]; 4h after the administration)	LD50 [2] [mg/kg]	also measured
COc1ccccc1OC(=O)CNC(C)=O [(1), 2-methoxyphenyl ester of N-acetlyglycine]	+1,3 ± 0,02%	-1,4 ± 0,03%	+2,3 ± 0,07%	1010	
COc1ccccc1OC(=O)C(C)NC(C)=O (stereo not drawn) [(3), 2-methoxyphenyl ester of N-acetylalanine]	+0,8 ± 0,04%	+1,2 ± 0,04%	+2,7 ± 0,08%	1150	
COc1ccccc1OC(=O)C(C)NC(=O)C(C)SC(=O)c1cccs1 (stereo not drawn) [(4), 2-methoxyphenyl ester of N-[2-(2-thenoylthio)propionyl]alanine]	+1,5 ± 0,05%	+1,9 ± 0,08%	+2,5 ± 0,09%	960	
COc1ccccc1OC(=O)C(CS)NC(C)=O (stereo not drawn) [(5), 2-methoxyphenyl ester of N-acetylcysteine]	+0,9 ± 0,05%	+2,1 ± 0,01%	+3,8 ± 0,09%	1270	
COc1ccccc1OC(=O)C(CSC(C)=O)NC(C)=O (stereo not drawn) [(6), 2-methoxyphenyl ester of N,S-diacetylcysteine]	+0,4 ± 0,05%	+2,1 ± 0,05%	+1,9 ± 0,04%	1580	
COc1ccccc1OC(=O)C(CSCC(=O)O)NC(C)=O (stereo not drawn) [(7), 2-methoxyphenyl ester of N-acetyl-S-carboxymethylcysteine]	+0,5 ± 0,03%	+0,7 ± 0,07%	+1,9 ± 0,09%	1250	
COc1ccccc1OC(=O)C(CS)NC(=O)C(C)SC(=O)c1cccs1 (stereo not drawn) [(8), 2-methoxyphenyl ester of N-[2-(2-thenoylthio)propionyl]cysteine]	+1,8 ± 0,04%	+1,7 ± 0,09%	+2,7 ± 0,05%	980	
COc1ccccc1OC(=O)C(CSC(C)=O)NC(=O)C(C)SC(=O)c1cccs1 (stereo not drawn) [(9), 2-methoxyphenyl ester of N-[2-(2-thenoylthio)propionyl]-S-acetylcysteine]	+1,9 ± 0,03%	+1,5 ± 0,04%	+2,4 ± 0,04%	1230	
COc1ccccc1OC(=O)C(CSCC(=O)O)NC(=O)C(C)SC(=O)c1cccs1 (stereo not drawn) [(10), 2-methoxyphenyl ester of N-[2-(2-thenoylthio)propionyl]-S-carboxymehtylcysteine]	+0,8 ± 0,02%	+1,3 ± 0,04%	+2,1 ± 0,03%	1340	
N[C@@H](CSCC(=O)O)C(=O)O [CMC, S-carboxymethyl-cysteine, reference compound]					Removal of the sodium fluoresceine from the bronchial tree (percentage increase versus the controls) [3]: 33.4%
COc1ccccc1OC(=O)CNC(=O)C(C)SC(=O)c1cccs1 (stereo not drawn) [Compound (2), 2-methoxyphenyl N-[2-(2-thenoylthio)propionyl]aminoacetate]	+0,3 ± 0,01%	+0,7 ± 0,03%	+1,4 ± 0,05%	1240	Removal of the sodium fluoresceine from the bronchial tree (percentage increase versus the controls) [3]: 123.5%; bronchosecretogogic activity, comparison with CMC and MPG [3]: much higher than CMC and MPG; pulmonary tropism [4]: high pulmonary tropism; lung concentrations of N-(2-mercaptopropionyl)glycine [4, 7]: higher; lung concentrations of thiophene-2-carboxylic acid [4, 7]: higher; absorption ([4]; oral administration): mostly absorbed as such after oral administration; enzymatic hydrolysis products [5]: enzymetically hydrolized giving N-(2-mercaptopropionyl)glycine, thiophene-2-carboxylic acid and guaiacol; tissue with highest esterase activity [5]: highest esterase activity is showed by the lung; % inhibition of the cough ([6]; 100 mg/kg i.p.): 95.8%; % inhibition of the cough ([6]; 500 mg/kg per os): 82.3%
CC(S)C(=O)NCC(=O)O (stereo not drawn) [MPG, N-(2-mercaptopropionyl)glycine, reference compound]					Removal of the sodium fluoresceine from the bronchial tree (percentage increase versus the controls) [3]: 21.9%
COc1ccc2c3c1O[C@H]1[C@@H](O)C=C[C@H]4[C@@H](C2)N(C)CC[C@@]341 [codeine, reference compound]					% inhibition of the cough ([6]; 12.5 mg/kg i.p.): 90.2%; % inhibition of the cough ([6]; 25 mg/kg per os): 75.6%
